Experimental data reported in patent publication US8450266B2 (Ipsen Pharma S.A.S., priority 2008, dated 2013).
Where a SMILES comes first, the peptide text is derived from it. [ ]: non-standard residue; d: D form. The star is where a group is joined. Cyclohexanecarbonyl = O=C(C1CCCCC1)*; Decanoyl = CCCCCCCCCC(=O)*; Orn = NCCC[C@H](N)C(=O)O; X1 = CCCN1C(=O)CC(*)C1=O; Hexanoyl = CCCCCC(=O)*

What was measured:
[1] = Human plasma half-life assay (LC-MS); type: in vitro ADME; details: incubated at 37° C., read-out: Human Plasma T½ (converted)
Method in brief: (§1)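 Aliquots taken from human or rat plasma at time points up to 72 h, quenched with formic acid and acetonitrile, centrifuged. Supernatant analyzed by LC-MS (ESI, positive ion, full scan) on a C8 column with a water/acetonitrile 1% formic acid gradient.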

[2] = Rat plasma half-life assay (LC-MS); type: in vitro ADME; details: incubated at 37° C., read-out: Rat Plasma T½ (converted)
Method in brief: as §1

SMILES | half-life at 0.1 mg/ml [1] | half-life at 0.1 mg/ml [2] | half-life at 0.1 mg/mL [1] | half-life at 0.1 mg/mL [2]
CCCCCCCCCC(=O)NCCC[C@H](NC(=O)[C@H](CCCCN)NC(=O)[C@H](CCC(N)=O)NC(=O)[C@H](C)NC(=O)[C@H](CC(C)C)NC(=O)[C@H](CC(C)C)NC(=O)[C@H](Cc1c[nH]c2ccccc12)NC(=O)[C@H](CC(N)=O)NC(=O)[C@@H](NC(=O)[C@H](Cc1ccccc1)NC(=O)[C@H](CC(=O)O)NC(=O)[C@H](CCC(N)=O)NC(=O)[C@H](CCC(N)=O)NC(=O)[C@H](Cc1c[nH]cn1)NC(=O)[C@@H](NC(=O)[C@H](CCCCN)NC(=O)[C@H](CC(=O)O)NC(=O)[C@H](CCSC)NC(=O)[C@H](C)NC(=O)[C@@H](NC(=O)[C@H](CO)NC(=O)[C@H](Cc1ccc(O)cc1)NC(=O)[C@H](CC(=O)O)NC(=O)[C@@H](N)CO)[C@@H](C)CC)[C@@H](C)CC)C(C)C)C(=O)N[C@@H](CCCCN)C(=O)N[C@@H](CCCCN)C(=O)N[C@@H](CC(N)=O)C(=O)N[C@@H](CC(=O)O)C(=O)N[C@@H](Cc1c[nH]c2ccccc12)C(=O)N[C@@H](CCCCN)C(=O)N[C@@H](Cc1c[nH]cn1)C(=O)N[C@@H](CC(N)=O)C(=O)N[C@H](C(=O)N[C@H](C(=O)N[C@@H](CCC(N)=O)C(=O)O)[C@@H](C)O)[C@@H](C)CC [Example 39, [Orn^31(N-C(O)-(CH2)8-CH3)]hGIP(8-42)-OH] (H-SDYSIAMDKIHQQDFVNWLLAQK[Orn](Decanoyl)KKNDWKHNITQ-OH) | 31.1 h | 13.7 h | – | –
CCCN1C(=O)CC(SC[C@H](NC(=O)[C@H](CCCCN)NC(=O)[C@H](CCC(N)=O)NC(=O)[C@H](C)NC(=O)[C@H](CC(C)C)NC(=O)[C@H](CC(C)C)NC(=O)[C@H](Cc2c[nH]c3ccccc23)NC(=O)[C@H](CC(N)=O)NC(=O)[C@@H](NC(=O)[C@H](Cc2ccccc2)NC(=O)[C@H](CC(=O)O)NC(=O)[C@H](CCC(N)=O)NC(=O)[C@H](CCC(N)=O)NC(=O)[C@H](Cc2c[nH]cn2)NC(=O)[C@@H](NC(=O)[C@H](CCCCN)NC(=O)[C@H](CC(=O)O)NC(=O)[C@H](CCSC)NC(=O)[C@H](C)NC(=O)[C@@H](NC(=O)[C@H](CO)NC(=O)[C@H](Cc2ccc(O)cc2)NC(=O)[C@H](CC(=O)O)NC(=O)[C@H](CO)NC(=O)C2CCCCC2)[C@@H](C)CC)[C@@H](C)CC)C(C)C)C(=O)N[C@@H](CCCCN)C(=O)N[C@@H](CCCCN)C(=O)N[C@@H](CC(N)=O)C(=O)N[C@@H](CC(=O)O)C(=O)N[C@@H](Cc2c[nH]c3ccccc23)C(=O)N[C@@H](CCCCN)C(=O)N[C@@H](Cc2c[nH]cn2)C(=O)N[C@@H](CC(N)=O)C(=O)N[C@H](C(=O)N[C@H](C(=O)N[C@@H](CCC(N)=O)C(=O)O)[C@@H](C)O)[C@@H](C)CC)C1=O (some centres unmarked) [Example 40, [Chc-Ser^8, Cys(Psu)^31]hGIP(8-42)-OH] (Cyclohexanecarbonyl-SDYSIAMDKIHQQDFVNWLLAQKC(X1)KKNDWKHNITQ-OH) | – | – | 4.1 h | 6.9 h
CCCCCC(=O)N[C@@H](CO)C(=O)N[C@@H](CC(=O)O)C(=O)N[C@@H](Cc1ccc(O)cc1)C(=O)N[C@@H](CO)C(=O)N[C@H](C(=O)N[C@@H](C)C(=O)N[C@@H](CCSC)C(=O)N[C@@H](CC(=O)O)C(=O)N[C@@H](CCCCN)C(=O)N[C@H](C(=O)N[C@@H](Cc1c[nH]cn1)C(=O)N[C@@H](CCC(N)=O)C(=O)N[C@@H](CCC(N)=O)C(=O)N[C@@H](CC(=O)O)C(=O)N[C@@H](Cc1ccccc1)C(=O)N[C@H](C(=O)N[C@@H](CC(N)=O)C(=O)N[C@@H](Cc1c[nH]c2ccccc12)C(=O)N[C@@H](CC(C)C)C(=O)N[C@@H](CC(C)C)C(=O)N[C@@H](C)C(=O)N[C@@H](CCC(N)=O)C(=O)N[C@@H](CCCCN)C(=O)N[C@@H](CSC1CC(=O)N(CCC)C1=O)C(=O)N[C@@H](CCCCN)C(=O)N[C@@H](CCCCN)C(=O)N[C@@H](CC(N)=O)C(=O)N[C@@H](CC(=O)O)C(=O)N[C@@H](Cc1c[nH]c2ccccc12)C(=O)N[C@@H](CCCCN)C(=O)N[C@@H](Cc1c[nH]cn1)C(=O)N[C@@H](CC(N)=O)C(=O)N[C@H](C(=O)N[C@H](C(=O)N[C@@H](CCC(N)=O)C(=O)O)[C@@H](C)O)[C@@H](C)CC)C(C)C)[C@@H](C)CC)[C@@H](C)CC (some centres unmarked) [Example 41, [CH3-(CH2)4-C(O)-Ser^8, Cys(Psu)^31]hGIP(8-42)-OH] (Hexanoyl-SDYSIAMDKIHQQDFVNWLLAQKC(X1)KKNDWKHNITQ-OH) | – | – | 5.9 h | 3.7 h
CCCC[C@H](NC(=O)[C@H](C)NC(=O)[C@@H](NC(=O)[C@H](CO)NC(=O)[C@H](Cc1ccc(O)cc1)NC(=O)[C@H](CC(=O)O)NC(=O)[C@H](CO)NC(=O)[C@@H](NC(=O)[C@H](Cc1ccccc1)NC(=O)[C@@H](NC(=O)CNC(=O)[C@@H]1CCCN1C(=O)CCc1ccc(O)cc1)[C@@H](C)O)[C@@H](C)CC)[C@@H](C)CC)C(=O)N[C@@H](CC(=O)O)C(=O)N[C@@H](CCCCN)C(=O)N[C@H](C(=O)N[C@@H](Cc1c[nH]cn1)C(=O)N[C@@H](CCC(N)=O)C(=O)N[C@@H](CCC(N)=O)C(=O)N[C@@H](CC(=O)O)C(=O)N[C@@H](Cc1ccccc1)C(=O)N[C@H](C(=O)N[C@@H](CC(N)=O)C(=O)N[C@@H](Cc1c[nH]c2ccccc12)C(=O)N[C@@H](CC(C)C)C(=O)N[C@@H](CC(C)C)C(=O)N[C@@H](C)C(=O)N[C@@H](CCC(N)=O)C(=O)N[C@@H](CCCCN)C(=O)NCC(=O)N[C@@H](CCCCN)C(=O)N[C@@H](CCCCN)C(=O)N[C@@H](CC(N)=O)C(=O)N[C@@H](CC(=O)O)C(=O)N[C@@H](Cc1c[nH]c2ccccc12)C(=O)N[C@@H](CCCCN)C(=O)N[C@@H](Cc1c[nH]cn1)C(=O)N[C@@H](CC(N)=O)C(=O)N[C@H](C(=O)N[C@H](C(=O)N[C@@H](CCC(N)=O)C(=O)O)[C@@H](C)O)[C@@H](C)CC)C(C)C)[C@@H](C)CC [Example 43, (4Hppa^2, Pro^3, Nle^14)hGIP(2-42)-OH] | – | – | > 53 h | 2.3 h
CC[C@H](C)[C@H](NC(=O)[C@H](CCCCN)NC(=O)[C@H](CC(=O)O)NC(=O)[C@H](CCSC)NC(=O)C(C)(C)NC(=O)[C@@H](NC(=O)[C@H](CO)NC(=O)[C@H](Cc1ccc(O)cc1)NC(=O)[C@H](CC(=O)O)NC(=O)[C@H](CO)NC(=O)[C@@H](NC(=O)[C@H](Cc1ccccc1)NC(=O)[C@@H](NC(=O)CNC(=O)[C@H](CCC(=O)O)NC(=O)CCc1ccc(O)cc1)[C@@H](C)O)[C@@H](C)CC)[C@@H](C)CC)C(=O)N[C@@H](Cc1c[nH]cn1)C(=O)N[C@@H](CCC(N)=O)C(=O)N[C@@H](CCC(N)=O)C(=O)N[C@@H](CC(=O)O)C(=O)N[C@@H](Cc1ccccc1)C(=O)N[C@H](C(=O)N[C@@H](CC(N)=O)C(=O)N[C@@H](Cc1c[nH]c2ccccc12)C(=O)N[C@@H](CC(C)C)C(=O)N[C@@H](CC(C)C)C(=O)N[C@@H](C)C(=O)N[C@@H](CCC(N)=O)C(=O)N[C@@H](CCCCN)C(=O)NCC(=O)N[C@@H](CCCCN)C(=O)N[C@@H](CCCCN)C(=O)N[C@@H](CC(N)=O)C(=O)N[C@@H](CC(=O)O)C(=O)N[C@@H](Cc1c[nH]c2ccccc12)C(=O)N[C@@H](CCCCN)C(=O)N[C@@H](Cc1c[nH]cn1)C(=O)N[C@@H](CC(N)=O)C(=O)N[C@H](C(=O)N[C@H](C(=O)N[C@@H](CCC(N)=O)C(=O)O)[C@@H](C)O)[C@@H](C)CC)C(C)C [Example 44, (4Hppa^2, Aib^13)hGIP(2-42)-OH)] | – | – | 48.8 h | 9.9 h
CC[C@H](C)[C@H](NC(=O)[C@H](CO)NC(=O)[C@H](Cc1ccc(O)cc1)NC(=O)[C@H](CC(=O)O)NC(=O)[C@H](CO)NC(=O)[C@@H](NC(=O)[C@H](Cc1ccccc1)NC(=O)[C@@H](NC(=O)CNC(=O)[C@H](CCC(=O)O)NC(=O)CCc1ccc(O)cc1)[C@@H](C)O)[C@@H](C)CC)C(=O)N[C@@H](C)C(=O)NC1(C(=O)N[C@@H](CC(=O)O)C(=O)N[C@@H](CCCCN)C(=O)N[C@H](C(=O)N[C@@H](Cc2c[nH]cn2)C(=O)N[C@@H](CCC(N)=O)C(=O)N[C@@H](CCC(N)=O)C(=O)N[C@@H](CC(=O)O)C(=O)N[C@@H](Cc2ccccc2)C(=O)N[C@H](C(=O)N[C@@H](CC(N)=O)C(=O)N[C@@H](Cc2c[nH]c3ccccc23)C(=O)N[C@@H](CC(C)C)C(=O)N[C@@H](CC(C)C)C(=O)N[C@@H](C)C(=O)N[C@@H](CCC(N)=O)C(=O)N[C@@H](CCCCN)C(=O)NCC(=O)N[C@@H](CCCCN)C(=O)N[C@@H](CCCCN)C(=O)N[C@@H](CC(N)=O)C(=O)N[C@@H](CC(=O)O)C(=O)N[C@@H](Cc2c[nH]c3ccccc23)C(=O)N[C@@H](CCCCN)C(=O)N[C@@H](Cc2c[nH]cn2)C(=O)N[C@@H](CC(N)=O)C(=O)N[C@H](C(=O)N[C@H](C(=O)N[C@@H](CCC(N)=O)C(=O)O)[C@@H](C)O)[C@@H](C)CC)C(C)C)[C@@H](C)CC)CCCCC1 [Example 45, (4Hppa^2, A6c^14)hGIP(2-42)-OH] | – | – | 64.2 h | 4.3 h
CC[C@H](C)[C@H](NC(=O)[C@H](CCCCN)NC(=O)[C@H](CC(=O)O)NC(=O)[C@H](CCSC)NC(=O)[C@H](C)NC(=O)[C@@H](NC(=O)C1(NC(=O)[C@H](Cc2ccc(O)cc2)NC(=O)[C@H](CC(=O)O)NC(=O)[C@H](CO)NC(=O)[C@@H](NC(=O)[C@H](Cc2ccccc2)NC(=O)[C@@H](NC(=O)CNC(=O)[C@H](CCC(=O)O)NC(=O)CCc2ccc(O)cc2)[C@@H](C)O)[C@@H](C)CC)CCCCC1)[C@@H](C)CC)C(=O)N[C@@H](Cc1c[nH]cn1)C(=O)N[C@@H](CCC(N)=O)C(=O)N[C@@H](CCC(N)=O)C(=O)N[C@@H](CC(=O)O)C(=O)N[C@@H](Cc1ccccc1)C(=O)N[C@H](C(=O)N[C@@H](CC(N)=O)C(=O)N[C@@H](Cc1c[nH]c2ccccc12)C(=O)N[C@@H](CC(C)C)C(=O)N[C@@H](CC(C)C)C(=O)N[C@@H](C)C(=O)N[C@@H](CCC(N)=O)C(=O)N[C@@H](CCCCN)C(=O)NCC(=O)N[C@@H](CCCCN)C(=O)N[C@@H](CCCCN)C(=O)N[C@@H](CC(N)=O)C(=O)N[C@@H](CC(=O)O)C(=O)N[C@@H](Cc1c[nH]c2ccccc12)C(=O)N[C@@H](CCCCN)C(=O)N[C@@H](Cc1c[nH]cn1)C(=O)N[C@@H](CC(N)=O)C(=O)N[C@H](C(=O)N[C@H](C(=O)N[C@@H](CCC(N)=O)C(=O)O)[C@@H](C)O)[C@@H](C)CC)C(C)C [Example 46, (4Hppa^2, A6c^11)hGIP(2-42)-OH] | – | – | 30.8 h | 11.9 h
